Source: ChEMBL document CHEMBL1201862, “PubChem BioAssay data set” (2004)
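Protocol summary: plate cells (96-well), add compound at 5 concentrations, incubate 48 h, interpolate endpoints linearly. The concentration for 50% growth inhibition is given as GI50.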 Calls of active or inactive are those of the source. No stated cut-off is given here; in the data, active = GI50 up to about 1.1 µM and inactive = higher.

How the values were obtained:
Experiment in all cases: NCI-60 cell line screen, 48 h
OVCAR-8 = tested on: OVCAR-8
NCI-H460 = tested on: NCI-H460
RPMI-8226 = tested on: RPMI-8226
UO-31 = tested on: UO-31
T47D = tested on: T47D
MDA-MB-435 = tested on: MDA-MB-435
SK-MEL-5 = tested on: SK-MEL-5
COLO 205 = tested on: COLO 205
M14 = tested on: M14
SW-620 = tested on: SW-620
ACHN = tested on: ACHN
HOP-62 = tested on: HOP-62
SK-MEL-2 = tested on: SK-MEL-2
IGROV-1 = tested on: IGROV-1
MOLT-4 = tested on: MOLT-4
SN12C = tested on: SN12C
HCC 2998 = tested on: HCC 2998
MDA-MB-231 = tested on: MDA-MB-231
UACC-62 = tested on: UACC-62
HCT-116 = tested on: HCT-116

Measured: GI50

O=C1NC2(CCCCC2)N=C2C(Cl)CCCC12Cl (stereo unspecified)
inactive: OVCAR-8 > 100 µM | NCI-H460 > 100 µM | RPMI-8226 > 100 µM | UO-31 > 100 µM | T47D > 100 µM | MDA-MB-435 > 100 µM | SK-MEL-5 > 100 µM | COLO 205 > 100 µM | M14 > 100 µM | SW-620 > 100 µM | ACHN > 100 µM | HOP-62 > 100 µM | SK-MEL-2 > 100 µM | IGROV-1 > 100 µM | MOLT-4 > 100 µM | SN12C > 100 µM | HCC 2998 > 100 µM | MDA-MB-231 > 100 µM | UACC-62 > 100 µM

O=c1c2cc(Br)ccc2oc2ccc(Br)cc12
inactive: OVCAR-8 > 100 µM | NCI-H460 > 100 µM | RPMI-8226 > 100 µM | UO-31 > 100 µM | T47D 81.3 µM | MDA-MB-435 > 100 µM | SK-MEL-5 > 100 µM | COLO 205 > 100 µM | M14 > 100 µM | SW-620 > 100 µM | ACHN > 100 µM | SK-MEL-2 > 100 µM | HCT-116 82.2 µM | IGROV-1 > 100 µM | MOLT-4 > 100 µM | SN12C > 100 µM | HCC 2998 > 100 µM | MDA-MB-231 > 100 µM | UACC-62 > 100 µM

Cc1ccc(S(=O)(=O)c2c(O)c3ccc(O)c(C)c3oc2=O)cc1
inactive: OVCAR-8 > 100 µM | NCI-H460 > 100 µM | RPMI-8226 > 100 µM | UO-31 > 100 µM | T47D > 100 µM | MDA-MB-435 > 100 µM | SK-MEL-5 > 100 µM | COLO 205 > 100 µM | M14 > 100 µM | SW-620 > 100 µM | ACHN > 100 µM | SK-MEL-2 > 100 µM | HCT-116 > 100 µM | IGROV-1 > 100 µM | MOLT-4 > 100 µM | SN12C > 100 µM | HCC 2998 > 100 µM | MDA-MB-231 > 100 µM | UACC-62 > 100 µM

O=C(NCCCN(CCCCN(CCCNC(=O)C(F)(F)F)CCCc1ccccc1)CCCc1ccccc1)C(F)(F)F
inactive: OVCAR-8 1.74 µM | NCI-H460 1.87 µM | RPMI-8226 2.63 µM | UO-31 1.26 µM | T47D 1.85 µM | MDA-MB-435 1.76 µM | SK-MEL-5 1.69 µM | COLO 205 1.56 µM | M14 1.76 µM | SW-620 1.98 µM | ACHN 2 µM | HCT-116 2.47 µM | IGROV-1 1.83 µM | MOLT-4 1.8 µM | SN12C 2.08 µM | HCC 2998 1.78 µM | MDA-MB-231 1.63 µM | UACC-62 1.8 µM

Brc1ccc(/N=N/N2CCCC2)cc1
inactive: NCI-H460 48.2 µM | RPMI-8226 51.1 µM | UO-31 32.4 µM | T47D 14.4 µM | MDA-MB-435 48.1 µM | SK-MEL-5 27.1 µM | COLO 205 > 100 µM | M14 > 100 µM | SW-620 > 100 µM | ACHN 71.6 µM | HOP-62 > 100 µM | SK-MEL-2 57.1 µM | HCT-116 58.6 µM | IGROV-1 34.8 µM | MOLT-4 28.6 µM | SN12C 59 µM | HCC 2998 40.6 µM | MDA-MB-231 > 100 µM | UACC-62 > 100 µM

COc1c2occc2cc2ccc(=O)oc12 [METHOXSALEN]
inactive: NCI-H460 62.7 µM | RPMI-8226 > 100 µM | UO-31 > 100 µM | T47D > 100 µM | MDA-MB-435 > 100 µM | SK-MEL-5 > 100 µM | COLO 205 > 100 µM | M14 > 100 µM | SW-620 > 100 µM | ACHN > 100 µM | HOP-62 > 100 µM | SK-MEL-2 > 100 µM | HCT-116 > 100 µM | MOLT-4 > 100 µM | SN12C > 100 µM | HCC 2998 > 100 µM | MDA-MB-231 > 100 µM | UACC-62 34.9 µM

O=c1ccc2ccc(O)cc2o1 [UMBELLIFERONE]
inactive: OVCAR-8 > 100 µM | RPMI-8226 > 100 µM | UO-31 > 100 µM | T47D > 100 µM | MDA-MB-435 > 100 µM | SK-MEL-5 > 100 µM | COLO 205 > 100 µM | M14 > 100 µM | SW-620 > 100 µM | ACHN > 100 µM | HOP-62 > 100 µM | SK-MEL-2 > 100 µM | HCT-116 > 100 µM | IGROV-1 > 100 µM | MOLT-4 > 100 µM | SN12C > 100 µM | HCC 2998 88.7 µM | MDA-MB-231 > 100 µM | UACC-62 > 100 µM
